Measurements as given in PubChem BioAssay (NCI).
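The compound was tested at five concentrations on cells cultured in 96-well plates, with a 48-hour exposure period. At the TGI there is no net growth.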

Legend:
Assay in all cases: NCI anticancer screen, dose series, 48 h
[1] = tested on: OVCAR-5 ovarian
[2] = tested on: NCI-H23 lung
[3] = tested on: HCT-15 colon
[4] = tested on: EKVX NSCLC
[5] = tested on: K-562 leukemia
[6] = tested on: IGROV1 ovarian
[7] = tested on: SW-620 colon
[8] = tested on: KM12 colon
[9] = tested on: RPMI-8226 leukemia
[10] = tested on: HCC-2998 colon
[11] = tested on: HCT-116 colon
[12] = tested on: LOX IMVI melanoma
[13] = tested on: SNB-19 CNS
[14] = tested on: T-47D breast
[15] = tested on: SK-MEL-5 melanoma
[16] = tested on: SNB-75 CNS
[17] = tested on: UACC-257 melanoma
[18] = tested on: SR leukemia
[19] = tested on: OVCAR-3 ovarian
[20] = tested on: RXF 393 renal
[21] = tested on: SK-MEL-2 melanoma
[22] = tested on: UO-31 renal
[23] = tested on: CCRF-CEM leukemia
[24] = tested on: MALME-3M melanoma
[25] = tested on: HOP-62 NSCLC
[26] = tested on: NCI-H522 lung
[27] = tested on: MOLT-4 leukemia
[28] = tested on: U251 CNS
[29] = tested on: OVCAR-8 ovarian
[30] = tested on: HS 578T breast
[31] = tested on: SN12C renal
[32] = tested on: ACHN renal
[33] = tested on: MCF7 breast
[34] = tested on: A549 NSCLC
[35] = tested on: SF-295 CNS
[36] = tested on: MDA-N
[37] = tested on: CAKI-1 renal
[38] = tested on: HL-60(TB) leukemia
[39] = tested on: HT29 colon
[40] = tested on: SK-MEL-28 melanoma
[41] = tested on: DU-145 prostate
[42] = tested on: SF-268 CNS
[43] = tested on: SF-539 CNS
[44] = tested on: 786-0 renal
[45] = tested on: TK-10 renal
[46] = tested on: PC-3 prostate
[47] = tested on: NCI-H460 lung
[48] = tested on: MDA-MB-231 breast
[49] = tested on: A498 renal
[50] = tested on: UACC-62 melanoma
[51] = tested on: BT-549 breast
[52] = tested on: NCI-H226 lung
[53] = tested on: SK-OV-3 ovarian
[54] = tested on: NCI/ADR-RES ovarian
[55] = tested on: M14 melanoma
[56] = tested on: COLO 205 colon
[57] = tested on: OVCAR-4 ovarian
[58] = tested on: MDA-MB-435
[59] = tested on: HOP-92 NSCLC

In the case of `N#Cc1c(N)[nH]c(=S)c(C#N)c1-c1ccccc1`, the TGI [1] is reported as > 100 µM, the TGI [2] is reported as > 100 µM and the TGI [3] is reported as > 100 µM. For the same compound, the TGI [4] was > 100 µM, the TGI [5] was > 100 µM and the TGI [6] was > 100 µM. The TGI [7] was > 100 µM, the TGI [8] was > 100 µM and the TGI [9] was > 100 µM. The TGI [10] was > 100 µM, the TGI [11] was > 100 µM and the TGI [12] was > 100 µM. For the same compound, the TGI [13] was > 100 µM, the TGI [14] was > 100 µM and the TGI [15] was > 100 µM. The TGI [16] was > 100 µM, the TGI [17] was > 100 µM and the TGI [18] was > 100 µM. The TGI [19] was > 100 µM, the TGI [20] was > 100 µM and the TGI [21] was > 100 µM. For the same compound, the TGI [22] was > 100 µM, the TGI [23] was > 100 µM and the TGI [24] was > 100 µM. For the same compound, the TGI [25] was > 100 µM, the TGI [26] was > 100 µM and the TGI [27] was > 100 µM. For the same compound, the TGI [28] was > 100 µM, the TGI [29] was > 100 µM and the TGI [30] was > 100 µM. For the same compound, the TGI [31] was > 100 µM, the TGI [32] was > 100 µM and the TGI [33] was > 100 µM. For the same compound, the TGI [34] was > 100 µM, the TGI [35] was > 100 µM and the TGI [36] was > 100 µM. The TGI [37] was > 100 µM, the TGI [38] was > 100 µM and the TGI [39] was > 100 µM. For the same compound, the TGI [40] was > 100 µM, the TGI [41] was > 100 µM and the TGI [42] was > 100 µM. For the same compound, the TGI [43] was > 100 µM, the TGI [44] was > 100 µM and the TGI [45] was > 100 µM. The TGI [46] was > 100 µM, the TGI [47] was > 100 µM and the TGI [48] was > 100 µM. The TGI [49] was > 100 µM, the TGI [50] was > 100 µM and the TGI [51] was > 100 µM. The TGI [52] was > 100 µM.

For `C=C(C)[C@@]1(OC(=O)c2cc([N+](=O)[O-])cc([N+](=O)[O-])c2)C[C@@H]2CCCC[C@@H]21`, the TGI [1] was > 100 µM, the TGI [2] was > 100 µM and the TGI [53] was > 100 µM. The TGI [3] was > 100 µM, the TGI [4] was > 100 µM and the TGI [5] was > 100 µM. The TGI [6] was > 100 µM, the TGI [7] was > 100 µM and the TGI [8] was > 100 µM. The TGI [9] was > 100 µM, the TGI [10] was > 100 µM and the TGI [11] was > 100 µM. For the same compound, the TGI [12] was > 100 µM, the TGI [13] was > 100 µM and the TGI [14] was > 100 µM. For the same compound, the TGI [16] was > 100 µM, the TGI [17] was > 100 µM and the TGI [18] was > 100 µM. For the same compound, the TGI [54] was > 100 µM, the TGI [21] was > 100 µM and the TGI [22] was > 100 µM. For the same compound, the TGI [23] was > 100 µM, the TGI [24] was > 100 µM and the TGI [25] was > 100 µM. The TGI [26] was > 100 µM, the TGI [27] was > 100 µM and the TGI [28] was > 100 µM. The TGI [29] was > 100 µM, the TGI [55] was > 100 µM and the TGI [30] was > 100 µM. For the same compound, the TGI [31] was > 100 µM, the TGI [32] was > 100 µM and the TGI [33] was > 100 µM. The TGI [34] was > 100 µM, the TGI [35] was > 100 µM and the TGI [36] was > 100 µM. The TGI [37] was > 100 µM, the TGI [38] was > 100 µM and the TGI [39] was > 100 µM. For the same compound, the TGI [40] was > 100 µM, the TGI [56] was > 100 µM and the TGI [41] was > 100 µM. For the same compound, the TGI [42] was > 100 µM, the TGI [57] was > 100 µM and the TGI [43] was > 100 µM. For the same compound, the TGI [44] was > 100 µM, the TGI [45] was > 100 µM and the TGI [46] was > 100 µM. The TGI [47] was > 100 µM, the TGI [48] was > 100 µM and the TGI [50] was > 100 µM. The TGI [51] was > 100 µM and the TGI [52] was > 100 µM.

`CC(=O)O[C@H]1/C(=C/c2ccncc2)C[C@H]2[C@@H]3CC=C4C[C@@H](N5CCCC5)CC[C@]4(C)[C@H]3CC[C@]12C` was tested, and the TGI [1] was 27.2 µM, the TGI [2] was 30.7 µM and the TGI [53] was 37 µM. The TGI [58] was 25.8 µM, the TGI [3] was 24.7 µM and the TGI [4] was 29 µM. It also gave a TGI [5] of 12.5 µM, a TGI [6] of 27.1 µM and a TGI [7] of 31.9 µM. The TGI [8] was 26.2 µM, the TGI [9] was 23.4 µM and the TGI [10] was 26 µM. It also gave a TGI [11] of 15.3 µM, a TGI [12] of 6.82 µM and a TGI [13] of 31.9 µM. It also gave a TGI [14] of 29.3 µM, a TGI [15] of 21.1 µM and a TGI [16] of 28.3 µM. The TGI [17] was 6.42 µM, the TGI [18] was 21.6 µM and the TGI [19] was 45.9 µM. The TGI [54] was 25.1 µM, the TGI [20] was 20.4 µM and the TGI [21] was 32.1 µM. It also gave a TGI [22] of 18.1 µM, a TGI [23] of 38.5 µM and a TGI [24] of 28 µM. For the same compound, the TGI [25] was 30.4 µM, the TGI [26] was 34.9 µM and the TGI [27] was 30.3 µM. For the same compound, the TGI [28] was 24.8 µM, the TGI [29] was 28.2 µM and the TGI [59] was 19.8 µM. The TGI [55] was 23.8 µM, the TGI [30] was 33.7 µM and the TGI [31] was 30.8 µM. For the same compound, the TGI [32] was 27.7 µM, the TGI [33] was 25.8 µM and the TGI [34] was 26.8 µM. It also gave a TGI [35] of 29.4 µM, a TGI [37] of 27.9 µM and a TGI [38] of 26.1 µM. The TGI [39] was 14.1 µM, the TGI [40] was 26 µM and the TGI [56] was 25.5 µM. For the same compound, the TGI [41] was 28 µM, the TGI [42] was 30.2 µM and the TGI [57] was 37.7 µM. For the same compound, the TGI [43] was 35 µM, the TGI [44] was 10.3 µM and the TGI [45] was 29.5 µM. The TGI [46] was 26.6 µM, the TGI [47] was 24.8 µM and the TGI [48] was 35 µM. The TGI [49] was 30.9 µM, the TGI [50] was 27.5 µM and the TGI [51] was 35.8 µM. It also gave a TGI [52] of 38 µM.

In the case of `O=C(CSc1nc2[nH]ncc2c(=O)[nH]1)c1ccc(Cl)cc1`, the TGI [1] is reported as > 100 µM, the TGI [2] is reported as > 100 µM and the TGI [53] is reported as > 100 µM. For the same compound, the TGI [58] was > 100 µM, the TGI [3] was > 100 µM and the TGI [4] was > 100 µM. For the same compound, the TGI [5] was > 100 µM, the TGI [6] was > 100 µM and the TGI [7] was > 100 µM. For the same compound, the TGI [8] was > 100 µM, the TGI [9] was > 100 µM and the TGI [10] was > 100 µM. For the same compound, the TGI [11] was > 100 µM, the TGI [12] was > 100 µM and the TGI [13] was > 100 µM. The TGI [14] was > 100 µM, the TGI [15] was > 100 µM and the TGI [16] was > 100 µM. For the same compound, the TGI [17] was > 100 µM, the TGI [18] was > 100 µM and the TGI [19] was > 100 µM. For the same compound, the TGI [54] was > 100 µM, the TGI [20] was > 100 µM and the TGI [21] was > 100 µM. For the same compound, the TGI [22] was > 100 µM, the TGI [23] was > 100 µM and the TGI [24] was > 100 µM. The TGI [25] was > 100 µM, the TGI [26] was > 100 µM and the TGI [27] was > 100 µM. The TGI [28] was > 100 µM, the TGI [29] was > 100 µM and the TGI [55] was > 100 µM. For the same compound, the TGI [30] was > 100 µM, the TGI [31] was > 100 µM and the TGI [32] was > 100 µM. For the same compound, the TGI [33] was > 100 µM, the TGI [34] was > 100 µM and the TGI [35] was > 100 µM. The TGI [36] was > 100 µM, the TGI [37] was > 100 µM and the TGI [39] was > 100 µM. The TGI [40] was > 100 µM, the TGI [56] was > 100 µM and the TGI [42] was > 100 µM. The TGI [57] was > 100 µM, the TGI [43] was > 100 µM and the TGI [44] was > 100 µM. For the same compound, the TGI [45] was > 100 µM, the TGI [46] was > 100 µM and the TGI [47] was > 100 µM. For the same compound, the TGI [48] was > 100 µM, the TGI [50] was > 100 µM and the TGI [51] was > 100 µM. For the same compound, the TGI [52] was > 100 µM.
